Experimental data as given in US6908902B2, “Treatment of neurological dysfunction comprising fructopyranose sulfamates and erythropoietin” (Ortho-McNeil Pharmaceutical, Inc., priority 2001, dated 2005).

Columns and labels:
Assay type in all cases: cell-based
Rat Cortical Cultures [1] = test: Array Scan Assay, Neurite Outgrowth (Neuron-specific); details: mean of eight observations
From the text: (§1) Dissociated hippocampal and cortical cell cultures were established from embryonic Day 18 rat fetuses as previously described (Mattson et al., 1994). Briefly, fetuses were removed via cesarean section from pregnant rats (Sprague-Dawley) and anesthetized with halothane according to the AVMA Panel on Euthanasia. Fetuses were decapitated and the brains were removed and placed in HEPES-buffered Hank's Balanced Salt solution (HBSS; Gibco). The hippocampi and cortices were dissected out and pooled according to tissue-type. Tissue was trypsinized for fifteen minutes (1 mg/ml trypsin-HBSS; Worthington), rinsed with fresh HBSS, incubated in trypsin inhibitor (1 mg/ml; Sigma) for five minutes, rinsed again with fresh HBSS and then triturated in 1 ml fresh HBSS with a fire-polished glass pipette. Dissociated cells were seeded at 20,000 cells (Array Scan Assay) and 30,000 cells (MAP2-FITC assay)/well onto poly-D-lysine coated 96-well plates (Collaborative BioScience). Each well contained 100 μl of Eagle's Minimal Essential Media (MEM; Gibco) supplemented with 26 mM NaHCO3 (Sigma), 56 mM glucose (Sigma), 15 mM KCl (Sigma), 1 mM sodium pyruvate (Sigma), 1.1 mM L-glutamine (Sigma), 10% (v/v) heat-inactivated fetal bovine serum (Hyclone), and 0.001% gentamicin sulfate (Sigma) (pH 7.4). Cells were allowed to attach for twenty-four hours in a humidified 37° C. 5% CO2 incubator before experimental treatment. The culture media was aspirated and exchanged with fresh media every three days.
Twenty-four hours after plating, rat cerebral cortical cell cultures, prepared as described above, were treated with vehicle (phosphate buffered saline+0.1% bovine serum albumin; Sigma), topiramate, EPO (rhEPO; 50 μM stock in 0.2 M citrate, 0.585 g/L NaCl diluted to appropriate concentrations in phosphate buffered saline+0.1% bovine serum albumin (BSA; Sigma)) or a combination of topiramate and EPO. On the third day in culture, the media was aspirated off and replaced with fresh media and test compound.
Culture media (prepared as described above) was aspirated and replaced with formaldehyde/Hoechst solution (fix cells and stain nuclei). Cultures were incubated in this solution for twenty minutes, then washed with permeabilization/wash/antibody (PWA) buffer. The buffer solution was aspirated and 100 μl of primary antibody (rabbit polyclonal IgG; specific for an epitope present only in neurons and neurites) was added to each well. The cultures were incubated for 60 minutes, then washed with PWA buffer. The buffer solution was again aspirated and 100 μl of secondary antibody (Alexa Fluor 488 conjugated goat anti-rabbit IgG) was added to each well. The cultures were incubated for 60 minutes and then washed with PWA buffer, followed by phosphate buffered saline (PBS) solution.
100 μl PBS-CM were added to each well, the plates were sealed and fluorescence was read on the Array Scan II System. (All reagents for this measurement were provided by the neurite outgrowth hit kit # K07-0001-1, Cellomics Inc.) The Array Scan algorithm for neurite outgrowth calculates the neurite outgrowth index for each field per well. This number represents the number of neurons with neurites divided by the total number of neurons in the field.
The ability of rhEPO, topiramate (TPM) and the combination of rhEPO and topiramate to increase neurite outgrowth in rat cortical cell cultures was determined according to the procedure described above, with results as listed in Table 1. For each dosage concentration, the measured value in the Table represents the mean percent change of eight experimental observations (from vehicle control). The abbreviation NT, as used in the Table below represents a concentration not tested.

Rat Cortical Cultures [2] = test: Neurite Outgrowth MAP2-FITC Assay for Rat Cortical Cells; details: one week in culture, mean of eight observations
From the text: as §1
(§2) Twenty-four hours after plating, rat cortical cell cultures, prepared as in Example 1, were treated with vehicle (phosphate buffered saline+0.1% bovine serum albumin; Sigma), topiramate, EPO (rhEPO; 50 μM stock in 0.2 M citrate, 0.585 g/L NaCl diluted to appropriate concentrations in phosphate buffered saline+0.1% bovine serum albumin (BSA; Sigma)) or a combination of topiramate and EPO. On the third day in culture, the media was aspirated off and replaced with fresh media and test compound. At one week in culture, the cells were fixed with 10% phosphate-buffered formalin for fifteen minutes, then rinsed with phosphate buffered saline and placed in blocking serum for thirty minutes (horse serum; 1:50 dilution in phosphate buffered saline; Vector Labs). Cultures were rinsed again with phosphate buffered saline and then incubated in primary antibody for two hours (microtubule-associated protein-2 (MAP-2) is a selective marker for dendritic processes; anti-mouse monoclonal (Chemicon); 1:1000 dilution of MAP-2 in antibody diluent (Zymed)). Negative control wells were incubated in antibody diluent alone. Background signal was determined by blank wells (cell-free) incubated with or without antibody. Cultures were rinsed again with phosphate buffered saline and then placed in fluorescein-labeled secondary antibody for one hour (FITC; anti-mouse IgG; rat adsorbed; 1:50 dilution in DPBS; Vector Labs). Cultures were rinsed a final time with phosphate buffered saline. The plates were then read on a Cytofluor 4000 fluorescence plate reader. Neurite outgrowth was expressed as percent change from control (vehicle; mean fluorescence±SEM).
(§3) The ability of rhEPO, topiramate and the combination of rhEPO and topiramate to increase neurite outgrowth in rat cortical cultures was determined according to the procedure described above, with results as listed in Table 3. For each case or treatment, the measured value in the Table represents the mean percent change of eight experimental observations (from vehicle control). The abbreviation NT, as used in Table 3 represents a concentration not tested.

Rat Hippocampal Cultures = test: Neurite Outgrowth MAP2-FITC Assay for Rat Hippocampal Cells; details: one week in culture, mean of eight observations
From the text: as §1
as §2, with “hippocampal” for “cortical”, “1 hr” for “one hour”
as §3, with “hippocampal” for “cortical”, “2.” for “3.”, “2” for “3”

[3] = Concentration 1 pM (rhEPO concentration in combinations)
[4] = Concentration 10 pM (rhEPO concentration in combinations)
[5] = Concentration 100 fM (rhEPO concentration in combinations)
[6] = Concentration 1 fM (rhEPO concentration in combinations)
[7] = Concentration 10 fM (rhEPO concentration in combinations)

Molecule	Neurite outgrowth, mean percent change from vehicle control (Measured) (Rat Cortical Cultures [1]; [3]) [%]	Neurite outgrowth, mean percent change from vehicle control (Measured) (Rat Cortical Cultures [1]; [4]) [%]	Neurite outgrowth, mean percent change from vehicle control (Measured) (Rat Cortical Cultures [1]; Concentration 100 pM) [%]	Neurite outgrowth, mean percent change from vehicle control (Measured) (Rat Cortical Cultures [1]; [5]) [%]	Neurite outgrowth, mean percent change from vehicle control (Measured) (Rat Cortical Cultures [2]; [3]) [%]	Neurite outgrowth, mean percent change from vehicle control (Measured) (Rat Cortical Cultures [2]; [4]) [%]	Neurite outgrowth, mean percent change from vehicle control (Measured) (Rat Cortical Cultures [2]; Concentration 100 pM) [%]	Neurite outgrowth, mean percent change from vehicle control (Measured) (Rat Cortical Cultures [2]; [5]) [%]	Neurite outgrowth, mean percent change from vehicle control (Measured) (Rat Hippocampal Cultures; [3]) [%]	Neurite outgrowth, mean percent change from vehicle control (Measured) (Rat Hippocampal Cultures; [4]) [%]	Neurite outgrowth, mean percent change from vehicle control (Measured) (Rat Hippocampal Cultures; Concentration 100 pM) [%]	Neurite outgrowth, mean percent change from vehicle control (Measured) (Rat Hippocampal Cultures; [5]) [%]	Neurite outgrowth, mean percent change from vehicle control (Measured) (Rat Cortical Cultures [1]; [6]) [%]	Neurite outgrowth, mean percent change from vehicle control (Measured) (Rat Cortical Cultures [1]; [7]) [%]	Neurite outgrowth, mean percent change from vehicle control (Measured) (Rat Cortical Cultures [2]; [6]) [%]	Neurite outgrowth, mean percent change from vehicle control (Measured) (Rat Cortical Cultures [2]; [7]) [%]	Neurite outgrowth, mean percent change from vehicle control (Measured) (Rat Hippocampal Cultures; [6]) [%]	Neurite outgrowth, mean percent change from vehicle control (Measured) (Rat Hippocampal Cultures; [7]) [%]
CC1(C)O[C@@H]2[C@@H](CO[C@@]3(COS(N)(=O)=O)OC(C)(C)O[C@@H]23)O1 [Topiramate, 2,3:4,5-bis-O-(1-methylethylidene)-β-D-fructopyranose sulfamate, reference compound]	0	20	12	4	23	30	37	24	14	5	−9	33						
rhEPO: Recombinant human erythropoietin; amino acid sequence identical to that of human urinary erythropoietin	9	11		28	19	24		10	20	21		12	29	−1	−14	−2	21	15
